Measurements published in ChEMBL document CHEMBL5727479, “Fused heteroaryl derivatives as orexin receptor antagonists” (2020).

Biological target: T1, Orexin receptor type 2 (Homo sapiens, UniProt O43614)
T1 sequence (O43614 whole entry): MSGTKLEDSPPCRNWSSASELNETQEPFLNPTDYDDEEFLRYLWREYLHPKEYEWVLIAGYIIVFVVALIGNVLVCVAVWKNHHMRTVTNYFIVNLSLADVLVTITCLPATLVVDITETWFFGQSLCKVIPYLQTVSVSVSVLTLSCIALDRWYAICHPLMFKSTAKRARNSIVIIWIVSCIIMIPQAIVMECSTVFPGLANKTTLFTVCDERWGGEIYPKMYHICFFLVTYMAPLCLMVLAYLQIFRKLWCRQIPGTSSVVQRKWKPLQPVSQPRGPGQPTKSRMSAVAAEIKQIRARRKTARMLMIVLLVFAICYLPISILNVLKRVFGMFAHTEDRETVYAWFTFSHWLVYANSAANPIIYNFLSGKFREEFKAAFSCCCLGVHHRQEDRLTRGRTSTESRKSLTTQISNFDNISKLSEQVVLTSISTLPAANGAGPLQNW
Assay: FLIPR Assay: In a typical experiment the OX1 and OX2 receptor antagonistic activity of the compounds of the present invention was determined in accordance with the following experimental method. For intracellular calcium measurements, Chinese hamster ovary (CHO) cells expressing the rat orexin-1 receptor or the human orexin-2 receptor, are grown in Iscove's modified DMEM containing 2 mM L-glutamine, […], 1% hypoxanthine-thymidine supplement, 100 U/ml penicillin, 100 μg/ml streptomycin and 10% heat-inactivated fetal calf serum (FCS). The cells are seeded at 20,000 cells/well into Becton-Dickinson black 384-well clear bottom sterile plates coated with poly-D-lysine. All reagents are from GIBCO-Invitrogen Corp. The seeded plates are incubated overnight at 37° C. and 5% CO2. Ala-6,12 human orexin-A as the agonist is prepared as a 1 mM stock solution in 1% bovine serum albumin (BSA) and diluted in assay buffer (HBSS containing 20 mM HEPES, 0.1% BSA and 2.5 mM probenecid, pH7.4) for use in the assay at a final concentration of 70 pM. Test compounds are prepared as 10 mM stock solution in DMSO, then diluted in 384-well plates, first in DMSO, then assay buffer. On the day of the assay, cells are washed 3 times with 100 μl assay buffer and then incubated for 60 min (37° C., 5% CO2) in 60 μl assay buffer containing […] Fluo-4AM ester, 0.02% pluronic acid, and 1% BSA.
Assay type: cell-based

C[C@@H]1CC[C@@H](Sc2nccn3nccc23)CN1C(=O)c1ccccc1-n1nccn1
IC50: 0.0157 µM
